Source: patent publication US20250236597A1, “DEUTERATED BENZODIAZEPINE ANALOGS AND METHODS OF USE IN TREATING CANCER” (University of Cincinnati, priority 2022, published 2025)

Columns and labels:
Format in all cases: cell-based
[1] = test system: A375 human melanoma cells; test: Cytotoxicity assay (CellTiter 96 AQueous One), A375 cells; details: A-375, 72 h, read-out: Cytotoxicity of deuterated compounds (IC50, μM)
Method: (§1) Cytotoxicity of DiD3, DiD5, QHD3, QHD5, KRMD3, and KRMD5 was assessed in A375 human melanoma cells, LN18 human glioma cells, and H1792 human NSCLC cells.
(§2) Each compound powder was weighed and dissolved in DMSO to a concentration of 40 mM. Dissolved compounds were stored at 4° C. Drug dilutions were prepared in phenol free medium as follows:
(§3) Cell culture process: Optimum cell number for each cell line was determined and the cell number giving about 1.0 OD value after one hour of incubation with the CellTiter 96® AQueous One Solution Cell Proliferation Assay reagent (Promega) was selected for cell proliferation experiments. On Day 1, cells were trypsinized, counted, and diluted to: A375 human melanoma cells: 30000 cells/mL (3000 cells/100 μL or 3000 cells/well); LN18 human glioma cells: 50000 cells/mL (5000 cells/100 μL or 5000 cells/well); and H1792 human NSCLC cells: 12000 cells/mL (1200 cells/100 μL or 1200 cells/well).
(§4) 100 μL of cell suspension was added to 96 well plates. Rows B to G and columns 2 to 11 were seeded with cells. Outer wells around the plate were filled with 100 μL phosphate buffered saline (PBS), except wells A2 to A6, which were filled with medium without cells. Cells were then incubated 24 hours and allowed to attach.
(§5) On Day 2: drug and controls were added to the plated cells as follows: background control: medium in wells A2 to A6 was aspirated and replaced with 100 μL fresh medium; control and test dilutions: medium was carefully aspirated and 100 μL of DMSO control or diluted drug was added to 5 consecutive wells in the same row. After drug addition, plates were returned to the incubator for 48 to 72 hours.
(§6) On Day 5 or 6:20 μL of CellTiter 96® AQueous One Solution Cell Proliferation Assay reagent (Promega) was added to each control or test well, incubated 1 to 2 hours, and then OD was acquired at 490 nm.
(§7) Data analysis: the average OD from the five wells containing medium and no cells (A2 to A6) was calculated and the value subtracted from each individual OD reading. The OD readings for each drug dilution was normalized to DMSO control, set as 100% cell viability/proliferation. Log drug concentration versus percentage viability was then plotted using GraphPad Prism.

[2] = test system: LN18 human glioma cells; test: Cytotoxicity assay (CellTiter 96 AQueous One), LN18 cells; details: LN-18, 72 h, read-out: Cytotoxicity of deuterated compounds (IC50, μM)
Method: as §1, §2, §3, §4, §5, §6, §7

[3] = test system: H1792 human NSCLC cells; test: Cytotoxicity assay (CellTiter 96 AQueous One), H1792 cells; details: NCI-H1792, 72 h, read-out: Cytotoxicity of deuterated compounds (IC50, μM)
Method: as §1, §2, §3, §4, §5, §6, §7

[4] = test system: tumors; test: Activity summary of exemplary deuterated compounds (Table 1); details: Table 1 summary, result in words
[5] = test system: human patient-derived cancer cell lines; test: Cytotoxicity against the tested cancer cell lines (overall statement); details: A375, LN18 and H1792 cells, result in words
Method: as §1, §2, §3
100 μL of cell suspension was added to 96 well plates. Rows B to G and columns 2 to 11 were seeded with cells. […]
Data analysis: the average OD from the five wells containing medium and no cells (A2 to A6) was calculated and the value subtracted from each individual OD reading. The OD readings for each drug dilution was normalized to DMSO control, set as 100% cell viability/proliferation. […]

SMILES | IC50 [1] | IC50 [2] | IC50 [3] | Activity [4] | Cytotoxicity against the tested human patient-derived cancer cell lines [5]
[2H]C1([2H])N=C(c2ccccc2)c2cc(C#C)ccc2N(C([2H])([2H])[2H])C1=O [QHD5] | 0.46 µM | 2.51 µM | 1.98 µM | Active against tumors | –
[2H]C([2H])([2H])N1C(=O)CN=C(c2ccccc2)c2cc(C#C)ccc21 [QHD3] | 0.31 µM | 1.81 µM | 1.75 µM | Active against tumors | –
[2H]C([2H])([2H])N1C(=O)CN=C(c2ccccc2)c2cc(Cl)ccc21 [DiD3] | – | – | – | Inactive | non-cytotoxic
[2H]C1([2H])N=C(c2ccccc2F)c2cc(C#C)ccc2N(C([2H])([2H])[2H])C1=O [KRMD5] | 0.63 µM | 2.67 µM | 2.52 µM | Active against tumors | –
[2H]C1([2H])N=C(c2ccccc2)c2cc(Cl)ccc2N(C([2H])([2H])[2H])C1=O [DiD5] | – | – | – | Inactive | non-cytotoxic
[2H]C([2H])([2H])N1C(=O)CN=C(c2ccccc2F)c2cc(C#C)ccc21 [KRMD3] | 0.35 µM | 2.43 µM | 2.13 µM | Active against tumors | –
